Consider 13 molecules from patent publication US20130245064A1, “NOVEL NEUROTRYPSIN INHIBITORS” (priority 2010, published 2013).

Some results are limits rather than exact numbers.

In one data set the target is T1, human neurotrypsin (Homo sapiens, UniProt P56730).
T1 sequence (P56730 21-875): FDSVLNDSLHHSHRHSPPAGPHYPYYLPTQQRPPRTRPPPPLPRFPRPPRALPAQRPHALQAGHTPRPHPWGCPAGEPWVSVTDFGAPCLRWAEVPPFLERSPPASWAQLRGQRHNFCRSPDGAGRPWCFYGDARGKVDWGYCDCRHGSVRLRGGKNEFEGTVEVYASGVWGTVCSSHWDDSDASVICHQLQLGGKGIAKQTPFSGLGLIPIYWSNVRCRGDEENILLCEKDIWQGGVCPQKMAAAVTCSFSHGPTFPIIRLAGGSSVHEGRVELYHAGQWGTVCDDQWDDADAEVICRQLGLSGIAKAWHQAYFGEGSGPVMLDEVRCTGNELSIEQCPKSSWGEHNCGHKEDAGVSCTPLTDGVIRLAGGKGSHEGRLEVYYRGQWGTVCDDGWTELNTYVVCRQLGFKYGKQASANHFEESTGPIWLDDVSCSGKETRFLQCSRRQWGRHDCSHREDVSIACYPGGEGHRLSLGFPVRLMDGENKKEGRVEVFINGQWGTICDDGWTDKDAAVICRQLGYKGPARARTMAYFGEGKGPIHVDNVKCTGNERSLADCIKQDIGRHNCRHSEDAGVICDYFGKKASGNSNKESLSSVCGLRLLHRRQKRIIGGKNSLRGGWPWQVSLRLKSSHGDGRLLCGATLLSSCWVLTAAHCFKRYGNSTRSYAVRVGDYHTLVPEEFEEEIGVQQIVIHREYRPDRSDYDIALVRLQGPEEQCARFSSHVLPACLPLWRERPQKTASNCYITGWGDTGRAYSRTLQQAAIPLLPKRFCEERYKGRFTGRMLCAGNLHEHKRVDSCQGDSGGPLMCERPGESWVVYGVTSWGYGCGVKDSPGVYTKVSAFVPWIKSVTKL
As to the kind of experiment: Determination of IC50 for human neurotrypsin. The note with it: table of all 14 examples; read-out: Neurotrypsin IC50. The class given is biochemical. How it is done:
Determination of IC50 for Human Neurotrypsin
Assessment of the potency of compounds of examples 1-14 in inhibiting the enzymatic activity of human neurotrypsin was performed according to the method described in patent application […]

For orientation: IC50 means the midpoint of a concentration-inhibition curve. What is called melting point is the temperature, or range, at which the solid turns liquid.

In the case of `O=C(Nc1ccc(C(=O)Nc2ccc(Cl)cc2F)c(O)c1)c1ccc(-c2nc3cc(Cl)c(Cl)cc3[nH]2)cc1` [Example 9, N-(2-Fluoro-4-chloro-phenyl)-4-(4-(5,6-di-chloro-1H-benzo[d]imidazol-2-yl)-benzamido)-2-hydroxybenzamide], the melting point is above 220 °C. On human neurotrypsin, the 50% inhibitory concentration (IC50) came out at 1.9 µM.

Molecule `O=C(Nc1ccc(C(=O)Nc2ccc(Cl)cc2)c(O)c1)c1ccc(Oc2ccc(Cl)c(Cl)c2)cc1` [Example 5] had a melting point above 220 °C. The IC50 at human neurotrypsin was 13.9 µM.

Take `O=C(Nc1ccc(C(=O)Nc2ccc(Cl)cc2)c(O)c1)c1ccc(-c2ccc(F)cc2)cc1` [Example 3]: the melting point is above 220 °C. The IC50 on human neurotrypsin was determined as 7.6 µM.

Molecule `CCCCc1ccc(NC(=O)c2ccc(NC(=O)c3ccc(-c4nc5cc(Cl)c(Cl)cc5[nH]4)cc3)cc2O)cc1` [Example 14, N-(4-Butylphenyl)-4-(4-(5,6-dichloro-1H-benzo[d]imidazol-2-yl)-benzamido)-2-hydroxybenzamide] registered a melting point above 220 °C. Also, at human neurotrypsin, the IC50 worked out at 1.7 µM.

As to “1-(2-Hydroxy-4-(5,6-dichloro-1H-benzo[d]imidazol-2-yl)-benzoyl)-4-phenoxypiperidine [Example 12]”, the concentration for half-maximal inhibition (IC50) on human neurotrypsin was 1.5 µM.

“1-(2-Hydroxy-4-(5,6-dichloro-1H-benzo[d]imidazol-2-yl)-benzoyl)-4-benzylpiperidine [Example 10]”: the half-maximal inhibitory concentration (IC50) on human neurotrypsin was found to be 18.3 µM.

`O=C(Nc1ccc(C(=O)Nc2ccc(Cl)cc2)c(O)c1)c1ccc2cc(Cl)c(Cl)cc2n1` [Example 7, N-(4-Chlorophenyl)-4-(6,7-dichloroquinoline-2-carbonyl)amino-2-hydroxybenzamide] had a melting point above 220 °C. Also, the IC50 on human neurotrypsin turned out to be 26.7 µM.

Turning to `O=C(Nc1ccc(Cl)cc1)c1ccc(NC(=O)c2sc3ccccc3c2Cl)cc1O` [Example 4, N-(4-Chlorophenyl)-4-[(3-chlorobenzo[b]-thiophene-2-carbonyl)amino]-2-hydroxybenzamide], the melting point is above 220 °C. Further, at human neurotrypsin, the IC50 was 55.5 µM.

Take `O=C(Nc1ccccc1F)c1ccc(NC(=O)c2[nH]c3ccc(Cl)cc3c2-c2ccccc2)cc1O` [Example 2, N-(2-Fluorophenyl)-4-(5-chloro-3-phenyl-indole-2-carbonyl)amino-2-hydroxybenzamide]: the melting point was above 220 °C. For the same molecule, the half-inhibitory concentration (IC50) on human neurotrypsin stood at 32.8 µM.

Turning to `CC(C)CN(CC(C)C)C(=O)c1ccc(NC(=O)c2ccc(-c3nc4cc(Cl)c(Cl)cc4[nH]3)cc2)cc1O` [Example 13, N,N-Diisobutyl-2-hydroxy-4-((5,6-dichloro-1H-benzo[d]imidazol-2-yl)-benzamido)benzamide], at human neurotrypsin, the IC50 was found to be 55.1 µM.

`O=C(Nc1ccc(C(=O)Nc2ccc(Cl)cc2)c(O)c1)c1ccc(-c2ccc(F)cc2)s1` [Example 6] gave a melting point above 220 °C. In addition, at human neurotrypsin, the IC50 stood at 3.4 µM.

The molecule `O=C(Nc1ccc(Cl)cc1)c1ccc(NC(=O)c2[nH]c3ccc(Cl)cc3c2-c2ccccc2)cc1O` [Example 8, N-(4-Chlorophenyl)-4-(5-chloro-3-phenylindole-2-carbonyl)amino-2-hydroxybenzamide] had a melting point above 220 °C. In addition, the IC50 at human neurotrypsin amounted to 10.8 µM.

The molecule `O=C(Nc1ccc(C(=O)Nc2ccc(F)cc2F)c(O)c1)c1ccc(-c2nc3cc(Cl)c(Cl)cc3[nH]2)cc1` [Example 11, N-(2,4-Difluorophenyl)-4-(4-(5,6-dichloro-1H-benzo[d]imidazol-2-yl)-benzamido)-2-hydroxybenzamide] came in with a melting point above 220 °C. Also, the IC50 at human neurotrypsin amounted to 1.1 µM.
